Laboratory results from PubChem BioAssay (NCI).
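Cultured in 96-well plates, cells were exposed to test compound for 48 hours across five concentrations. GI50 marks 50% less growth. Definition used: TGI = concentration required for complete inhibition of growth.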

Columns and labels:
Assay in all cases: NCI tumour cell line growth inhibition, 48 h
[1] = test system: SR leukemia
[2] = test system: MALME-3M melanoma
[3] = test system: NCI-H460 lung
[4] = test system: TK-10 renal
[5] = test system: UACC-257 melanoma
[6] = test system: OVCAR-3 ovarian
[7] = test system: IGROV1 ovarian
[8] = test system: KM12 colon
[9] = test system: MOLT-4 leukemia
[10] = test system: CCRF-CEM leukemia

Row | Compound | TGI [1] [µM] | TGI [2] [µM] | TGI [3] [µM] | TGI [4] [µM] | TGI [5] [µM] | TGI [6] [µM] | TGI [7] [µM] | TGI [8] [µM] | TGI [9] [µM] | GI50 [2] [µM] | GI50 [3] [µM] | GI50 [4] [µM] | GI50 [5] [µM] | GI50 [6] [µM] | GI50 [7] [µM] | GI50 [10] [µM] | TGI [10] [µM] | GI50 [8] [µM] | GI50 [9] [µM] | GI50 [1] [µM]
1 | O=c1cc(N=Nc2ccc(O)cc2)[nH]c(=O)[nH]1 | > 100 | 89.2 | > 100 | > 100 | > 100 | > 100 | > 100 | > 100 | > 100 | – | – | – | – | – | – | – | – | – | – | –
2 | O=C(CN(/C=C/C(=O)C(F)(F)F)c1ccccc1)c1ccc(Cl)c(Cl)c1 | – | 32.1 | 44.9 | 32.8 | 27.4 | 30 | 19.7 | 28.4 | 32.4 | 12.8 | 17.5 | 15.9 | 13.4 | 14.1 | 5.76 | 11.2 | 29.2 | 12.3 | 12.7 | –
3 | C=CC1C(OC2OC(CO)C(O)C(O)C2O)OC=C(C(=O)OC)C1CC=O (stereo unspecified) | > 100 | > 100 | – | – | – | > 100 | > 100 | > 100 | > 100 | – | – | – | – | – | – | – | – | – | – | –
4 | CCCOC(=O)CCn1c(SC)nc2[nH]cc(-c3ccccc3)c2c1=O | – | 51.8 | > 100 | > 100 | > 100 | 54.1 | 49.6 | 53.8 | 15.1 | 18.5 | 13.4 | 47.3 | 33.8 | 19.9 | 13.5 | 1.37 | 35.1 | 18.7 | 1.16 | –
5 | Cc1c(Cl)cccc1NC1=C(Cl)C(=O)N(Cc2ccccc2)C1=O | – | – | 30.2 | 15.3 | – | 15.2 | 56.5 | 14 | 43 | – | 11 | 2.87 | – | 1.47 | 19.7 | 0.392 | 12.5 | 2.17 | 10.1 | –
6 | CCCCCCCOc1c(OC)cc(C2CC(=O)Nc3c2c(C)nn3-c2nc3ccccc3[nH]2)cc1OC (stereo unspecified) | > 100 | – | 3.82 | > 100 | > 100 | – | 10.1 | 9.81 | 7.72 | – | 1.87 | 3.12 | 4.03 | – | 2.74 | 4.15 | > 100 | 2.81 | 2.8 | 3.08
7 | Cc1ccc2c(c1)C(=O)c1c-2n(CCCBr)c(=O)c2cc([N+](=O)[O-])ccc12 | – | > 100 | > 100 | > 100 | > 100 | > 100 | 65.8 | > 100 | > 100 | > 100 | 6.43 | > 100 | > 100 | 71.1 | 6.65 | 5.29 | 46.4 | > 100 | 26.6 | –
8 | CC12CC(OC(=O)[C@]1(C)O)[C@@H]([C@]1(O)CC[C@H]3[C@@H]4C[C@H]5O[C@]56[C@@H](O)C=CC(=O)[C@]6(C)[C@H]4CC[C@@]31C)C2 (stereo partly specified) | – | – | 32.3 | 20.2 | 28.4 | 7.72 | 35.1 | 28.7 | 10.1 | – | – | – | – | – | – | – | 7.16 | – | – | –
9 | CN(C(=O)c1ccncc1)c1ccccc1 | > 100 | > 100 | > 100 | > 100 | > 100 | > 100 | > 100 | > 100 | > 100 | – | – | – | – | – | – | – | – | – | – | –
10 | Nc1cc(N)c2nc(-c3ccccc3)c(NCc3ccc(F)cc3)nc2c1 | > 100 | – | 25.6 | 19.8 | 4.26 | 6.42 | > 100 | 7.38 | > 100 | – | 4.05 | 5.83 | 2.02 | 2.39 | 3.11 | – | – | 2.82 | > 100 | 4.11
11 | CC(C)C[C@H](NC(=O)[C@@H](O)[C@H](N)Cc1ccc([N+](=O)[O-])cc1)C(=O)O | – | > 25 | > 25 | > 25 | > 25 | > 25 | > 25 | > 25 | – | > 25 | > 25 | > 25 | > 25 | 0.0025 | > 25 | – | – | > 25 | – | –
12 | Cc1ccc(Sc2ccc(C)cc2[N+](=O)[O-])c([N+](=O)[O-])c1 | – | > 100 | > 100 | > 100 | > 10 | > 100 | > 100 | > 100 | > 100 | – | – | – | – | – | – | – | > 100 | – | – | –
13 | Cc1[nH]c2ccccc2c1CCNCc1ccc(/C=C/C(=O)NO)cc1 | – | – | 0.838 | 0.0453 | 0.0447 | – | 0.0721 | 0.112 | – | – | < 0.01 | < 0.0111 | < 0.01 | – | 0.0168 | – | – | 0.0193 | < 0.01 | < 0.01
14 | C=C1CCC2[C@@H](CCC3[C@]2(C)CCC[C@]3(C)C(=O)OC)C1CCO (stereo partly specified) | – | 35.8 | 37.2 | 34.1 | 18.6 | 26 | 29.6 | 25.2 | 17.9 | – | – | – | – | – | – | – | 33.1 | – | – | –
15 | CC(=O)NC1CC2Oc3ccc(C)cc3C(C)(O2)C1O (stereo unspecified) | – | > 100 | > 100 | > 100 | > 100 | > 100 | > 100 | > 100 | > 100 | – | – | – | – | – | – | – | > 100 | – | – | –
16 | CCN(CC)CC(C(=O)Nc1c(C)cccc1C)/C(C)=N\NC(=O)c1ccncc1 (stereo unspecified) | > 100 | > 100 | > 100 | > 100 | > 100 | > 100 | > 100 | > 100 | > 100 | – | – | – | – | – | – | – | – | – | – | –
17 | COc1cc(/C=C/C(=O)c2sc(NNC(C)=O)nc2C)ccc1O | – | > 100 | > 100 | > 100 | > 100 | > 100 | > 100 | > 100 | > 100 | – | – | – | – | – | – | – | > 100 | – | – | –
18 | C=CCNC(=O)NCCCC(NC(C)=O)C(=O)NCc1ccccc1 (stereo unspecified) | – | > 100 | > 100 | > 100 | > 100 | > 100 | > 100 | > 100 | > 100 | – | – | – | – | – | – | – | > 100 | – | – | –
19 | CCCCNC(=O)NS(=O)(=O)c1ccc(N2N=C(c3cc(C)ccc3C)CC2c2cc(OC)c(OC)c(OC)c2)cc1 (stereo unspecified) | – | 6.83 | 5.96 | 10.7 | 12.9 | 3.99 | 9.96 | 5.26 | 8.89 | 2.4 | 2.46 | 3.44 | 3.39 | 2.07 | 3.19 | 2.2 | 6.12 | 2.25 | 2.74 | –
20 | N=C(N)c1ccc(COc2ccccc2OCc2ccc(C(=N)N)cc2)cc1 | – | 52.2 | > 100 | > 100 | > 100 | 53.5 | > 100 | – | > 100 | 19.2 | 20.9 | 34.3 | > 100 | 16.4 | 61.6 | 33.1 | > 100 | – | 49.6 | –
21 | O=C1CCC2(c3ccccc3)Nc3ncccc3N12 (stereo unspecified) | – | > 100 | > 100 | > 100 | > 100 | > 100 | > 100 | > 100 | > 100 | – | – | – | – | – | – | – | > 100 | – | – | –
22 | CCOC(=O)c1nc(-c2ccccc2)oc1OCC | – | – | > 100 | > 100 | – | > 100 | > 100 | > 100 | > 100 | – | – | – | – | – | – | – | > 100 | – | – | –
23 | CCOc1ccccc1/C=N\N=C(\N)N/N=C/c1ccccc1OCC | – | – | > 100 | > 100 | > 100 | 4.48 | > 100 | > 100 | > 100 | – | 3.16 | 6.16 | 4.37 | 1.69 | 4.76 | 3.06 | > 100 | 1.89 | 3.33 | –
24 | CCOC(=O)c1nc(Nc2ccc(Cl)cc2)c2ccccc2n1 | > 50 | – | 23.7 | 19.3 | 30.6 | 13.2 | 26 | 15.1 | – | – | 9.44 | 8.11 | 13 | 6.11 | 10.7 | – | – | 7.42 | – | 8.87
25 | O=C1c2ccccc2CC1C1(O)C(=O)Nc2ccccc21 (stereo unspecified) | – | > 100 | > 100 | > 100 | > 100 | > 100 | > 100 | – | > 100 | – | – | – | – | – | – | – | – | – | – | –
26 | Cc1cn2c(/C=N/Nc3ccccn3)c(-c3ccc(Cl)c([N+](=O)[O-])c3)nc2s1 | 10.6 | – | 22.3 | 47.3 | > 50 | 27.3 | 21.8 | > 50 | – | – | 5.3 | 15.3 | 21.3 | 11 | 5.62 | – | – | 23.1 | – | 1.86
27 | COC(=O)c1cc(-c2cccn2C)c2c(c1C(=O)OC)c1ccccc1n2C | > 100 | > 100 | > 100 | > 100 | > 100 | > 100 | > 100 | > 100 | 29.3 | – | – | – | – | – | – | – | – | – | – | –
28 | S=C(Nc1cc(Cl)c(Cl)cc1Cl)SCc1ccccc1 | 10.8 | 59.3 | > 100 | 53.8 | 37.6 | 49.3 | > 100 | 36.6 | 76.4 | – | – | – | – | – | – | – | – | – | – | –
